# According to patent publication US20250302846A1, “ANTIBIOTIC COMPOSITION AND METHODS OF USE THEREOF” (THE REGENTS OF THE UNIVERSITY OF COLORADO A BODY CORPORATE, priority 2022, published 2025):
# Several values for one entry are separate records, joined by “and”; a condition that tells them apart may be missing. Identical values can stand only once.
# Columns and labels:
# Type in all cases: cell-based
# staphylococcal strains = assay: MIC95 quoted for staphylococcal persister and biofilm experiments; settings: staphylococcal strains; read-out: MIC95
# Procedure: A-D) Overnight cultures of the indicated strains were treated at time 0 with DMSO, ciprofloxacin [4 μg/mL], vancomycin [10 μg/mL], or the corresponding MIC95 concentration of D66 (1x MIC95=130 μM, 49 μg/mL). Cultures were plated for enumeration of CFU at time points indicated. Mean and SEM of three biological replicates. E) RAW 264.7 macrophage-like cells and HeLa cells were infected with S. aureus USA300, at MOIs of 0.5 and 2.5, respectively. Cells were treated two hours after infection with DMSO (gray circle on Y axis), or dilutions of D66 from 40 μM. After 8 hours of infection, cells were lysed and plated for enumeration of CFU. Mean and SEM of biological duplicates performed with technical triplicates each with six dilutions of D66. The IC50 value that was calculatable is indicated.
# Biofilm formation was monitored after 18 hours in TSB with subinhibitory concentrations of DMSO, rifampin (1x MIC95=0.05 μg/mL), vancomycin (1x MIC95=1 μg/mL), or D66 (1x MIC95=130 μM). A-D) Crystal violet staining for accumulated biofilm mass measured at A595. Mean and […]
# S. Typhimurium SL1344 = assay: Novobiocin potentiation (checkerboard) assay; settings: LB, 18 hours, D66 up to 150 μM, novobiocin up to 100 μg/mL
# Procedure: A, B) Dose response curves monitoring S. Typhimurium (SL1344) or E. coli (K12) growth from an OD600 of 0.01, normalized to growth in 2% DMSO under the indicated condition. Mean and SEM of at least three biological replicates performed with technical triplicates; curve fit: sigmoidal, 4P L. C-E) Checkerboard assays of S. Typhimurium SL1344 growth from an OD600 of 0.01 in LB for 18 hours with novobiocin (up to 100 μg/mL) and (C) PMB (up to 48 μM), (D) JDI (up to 150 μM), or (E) D66 (up to 150 μM). Growth was normalized to growth in 2% DMSO, with the darkest blue representing 100% growth and white representing 0%.
# Novobiocin potentiation assays: Overnight LB-grown cultures were diluted in LB to an optical density at 600 nm (OD600) of 0.01 and distributed into polystyrene 96-well flat-bottom plates (Greiner, 655185). […] The final DMSO concentration was at or below 2%. Plates were grown at 37° C. with shaking for 18 hours and OD600 was monitored (BioTek Synergy H1).
# Bacillus subtilis = assay: Growth inhibition in broth (MIC95)
# Procedure: FIG. 8A-B. D66 inhibits the growth of Gram-positive bacteria in broth. A) Dose response curves monitoring staphylococcal and B. subtills growth in the presence of D66 from an OD600 of 0.01, normalized to growth in 2% DMSO after 18 hours. Mean and SEM of at least three biological replicates performed with technical triplicates. B) Table of D66 concentrations that inhibit growth. For comparison, S. Typhimurium is included.
# A) D66 quenches the fluorescent dye DiSC3 (5) in a dose-dependent manner. Data were normalized to DMSO at time 0. Relative fluorescent units (RFU). Mean and SEM of three biological replicates performed with technical triplicates. B, C) Mid-log phase S. aureus (FDA209) in LB were treated at time 0 with DMSO, gramicidin [2 μg/mL], or D66 (1x MIC95=130 μM). B) Fold change in RFU. Data are normalized to DMSO at time 0. C) Data normalized to account for the quenching effect of D66 on DiSC3 (5) observed in A. Mean and SEM of three biological replicates performed with technical triplicates. D) Bacillus subtilis expressing mNeonGreen-FtsZ at stationary phase in LB were placed on agar pads containing D66 at the indicated concentration (1x MIC95=89 μM). Confocal microscope images were taken after 15 minutes to ascertain whether D66 disrupted the septal localization of FtsZ.
# [1] = tested on: S. Typhimurium SL1344 or 14028 in HeLa cells; assay: CFU assay in infected HeLa cells
# Procedure: FIG. 1A-D. D66 is a small molecule that prevents S. Typhimurium replication and/or survival in macrophages. A). Structure of D66. B) RAW264.7 macrophage-like cells were infected with S. Typhimurium harboring a chromosomal sifB: : gfp reporter, treated with DMSO or D66 at two hours after infection, and monitored for bacterial accumulation (GFP+Macrophage Area) over 16 hours using the SAFIRE (Screen for Anti-infectives using Fluorescence microscopy of Intracellular Enterobacteriaceae) assay. The IC50 value is indicated. Mean and SD of biological duplicates with technical duplicates across 9 dilutions of D66. C, D) CFU assays were performed with RAW264.7 or HeLa cells infected with S. Typhimurium SL1344 or 14028 for two hours and treated for 16 hours with DMSO or 1.5-fold dilutions of D66, prior to lysis and plating for CFU. Symbols on the Y-axes are the CFU value from DMSO-treated samples. The IC50 values are indicated. Mean and SEMs of biological triplicates with technical duplicates across 8 dilutions of D66.
# CFU assays were performed with RAW 264.7 cells seeded as above or with Hela cells (ATCC CCL-2) seeded at 1x10^4 cells per 96-well. Cells were infected as described above with either S. Typhimurium SL1344 or 14028, as indicated at an approximate MOI of 30 bacteria per RAW 264.7 cell and 150 bacteria per HeLa cell. Plates were centrifuged and gentamicin treated as above. […]
# S. aureus FDA209 = assay: Growth curves and kill curves of mid-log phase S. aureus
# Procedure: FIG. 9A-B. D66 is bactericidal to mid-log phase S. aureus. A) Growth curves and B) kill-curves. Mid-log phase cultures of S. aureus FDA209 were treated at time 0 with either DMSO or the indicated concentration of D66 (1x MIC95=130 μM). Cultures were monitored for OD600 and plated for enumeration of colony forming units (CFU). Data are presented as fold change. Mean and SEM of three biological replicates performed with technical triplicates.
compound,measurement,setting,value
O=C(Nc1cc(Cl)cc(Cl)c1)N1CCCN(Cc2ccccc2)CC1 [D66],MIC,staphylococcal strains,130 µM and 49 µg/mL
same,potentiation of growth inhibition with novobiocin,S. Typhimurium SL1344,did not potentiate novobiocin
same,MIC,Bacillus subtilis,89 µM
same,ability to reduce bacterial load in Hela cells,[1],little effect
same,reduction in CFU,[1],5-10 fold
same,killing of mid-log phase S. aureus,S. aureus FDA209,bactericidal
